Reference: patent US6251893A, “Bicyclic piperidine and piperazine compounds having 5-HT6 receptor affinity” (NPS Allelix Corp., priority 1998, dated 2001)

Experiments:
human 5HT6 receptor [1] = molecular target: T1, human 5HT6 receptor (Homo sapiens, UniProt P50406); experiment: Binding affinity for the 5-HT6 receptor (3H-LSD displacement); parameters: expressed in transfected cells; settings: 100 nM test compound; 3H-LSD (2 nM); 60 minute incubation at 37° C; read-out: percent inhibition of radioligand binding for the 5-HT6 receptor
Description: Binding Affinity for the 5-HT6 Receptor
The assay protocol generally entailed the incubation of membranes prepared from cells expressing the 5-HT6 receptor with ^3 H-LSD (2 nM). Increasing levels of the test compound were incubated with the radioligand and the membrane homogenates prepared from the recombinant cells. After a 60 minute incubation at 37° C., the incubation was terminated by vacuum filtration. The filters were washed with buffer and the filters were counted for radioactivity using liquid scintillation spectrometry. […] Concentrations ranging from 10^-11 M to 10^-5 M of the test compound were evaluated. […] Affinity for the 5-HT6 receptor is expressed as the amount (in percent) of binding of the radioligand that is inhibited in the presence of 100 nM of test compound. A greater percent inhibition indicates greater affinity for the 5-HT6 receptor.

human 5HT6 receptor [2] = molecular target: T1, human 5HT6 receptor; experiment: Functional assay: reversal of serotonin-stimulated adenyl cyclase activity (cAMP) in HEK 293 cells stably expressing the human 5HT6 receptor; assay type: cell-based; parameters: cAMP functional assay in whole cells; settings: 100 nM and 10 μM test compound with serotonin
Description: The 5HT6 receptor responds to serotonin and other agonists by increasing adenyl cyclase mediated production of cyclic AMP. Particular test compounds were assayed for their effect on adenyl cyclase activity using the procedure described below.
Compounds acting as antagonists at the 5HT6 receptor will antagonize the agonist effect of serotonin and thus, will block the serotonin-inducedincrease in adenyl cyclase activity.
HEK 293 cells stably expressing the human 5HT6 receptor were plated in 6 well plates in DMEM (Dulbecco's Modified Eagle Medium)/F12 (Nutrient Mixture F12-Ham) media with 10% FCS (fetal calf serum) and G418 (Geneticen Disulfate, 500 ug/ml), and incubated at 37° C. in a CO2 incubator. The cells were allowed to grow to about 70% confluence before use in the assay.
The culture medium of each well was removed, and the wells were washed once with serum free media. Then 2 ml of SFM+IBMX medium (SFM with 0.5 mM IBMX, 3-isobutyl-1-methylxanthine, 0.1% ascorbic acid and 10 mM pargyline) was added to each well and the wells were incubated at 37° C. for 10 min. Following incubation, the SFM+IBMX medium was removed from each well and fresh SFM+IBMX media was added to the wells separately with one of a) serotonin (1 μM final concentration); b) test compound (100 nM and 10 μM, to test for agonist activity); and c) test compound (100 nM and 10 μM) along with serotonin ([…], to test for antagonist activity). Basal adenyl cyclase activity was determined from wells with only SFM+IBMX media added.
The cells were then incubated at 37° C. for 30 minutes in a CO2 incubator. Following incubation, the media were removed from each well. The wells were washed once with 1 ml of PBS (phosphate buffered saline). Each well was then treated with 1 mL cold 95% ethanol:5 mM EDTA (2:1) at 4° C. for 1 hour. The cells from each well were then scraped and transferred into individual Eppendorf tubes. The tubes were centrifuged for 5 minutes at 4° C., and the supernatants were transferred to new Eppendorf tubes and stored at 4° C. The pellets were discarded and the supernatants were stored at 4° C. until assayed for cAMP concentration. cAMP content for each extract was determined in duplicate by EIA (enzyme-immunoassay) using the Amersham Biotrak cAMP EIA kit (Amersham RPN 225). Final results were expressed as % basal response for agonists and % reversal of serotonin response for antagonists.
The total stimulation of adenyl cyclase by serotonin (So) was determined as the difference in concentration of cAMP in the serotonin-treated cells (Cd) and the basal-treated cells (Cf).
The net stimulation (S) of basal adenyl cyclase by an agonist test compound was determined as the difference in cAMP concentration in the drug-treatedcell (C) and the basal-treated cells (Cf).
The net stimulation (Ss) of basal adenyl cyclase by serotonin in the presence of an antagonist test compound was determined as the difference in cAMP concentration in the serontonin-drug-treated cells (Cs) and the basal-treated cells (Cf).
The ability of the antagonist test compound to reverse the serotonin stimuation of adenyl cyclase activity (% reversal, % R) was determined by the formula: […]

5-HT2A receptor = 5-HT2A receptor (Homo sapiens, UniProt P28223); experiment: Binding to 5-HT2A receptor (selectivity); parameters: dose or concentration left out as unconfirmed; settings: selectivity versus 5-HT6; read-out: percent inhibition for the 5-HT2A receptor
5HT2C receptor = molecular target: T2, 5HT2C receptor (Homo sapiens, UniProt P28335); experiment: Binding to 5HT2C receptor (selectivity); settings: selectivity versus 5-HT6; read-out: percent inhibition for the 5HT2C receptor
T2 sequence (P28335 33-458): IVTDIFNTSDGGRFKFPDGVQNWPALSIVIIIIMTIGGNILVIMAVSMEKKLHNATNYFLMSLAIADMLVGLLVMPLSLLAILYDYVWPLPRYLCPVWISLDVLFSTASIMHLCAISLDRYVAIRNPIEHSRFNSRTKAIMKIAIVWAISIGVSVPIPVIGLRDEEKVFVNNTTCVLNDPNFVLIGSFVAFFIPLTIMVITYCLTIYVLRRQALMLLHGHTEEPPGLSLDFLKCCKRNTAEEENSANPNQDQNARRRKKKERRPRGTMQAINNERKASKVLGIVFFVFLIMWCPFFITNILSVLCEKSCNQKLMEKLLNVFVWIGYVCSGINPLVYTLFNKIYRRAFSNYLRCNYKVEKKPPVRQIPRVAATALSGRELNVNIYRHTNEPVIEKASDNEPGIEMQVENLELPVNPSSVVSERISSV

5-HT7 receptor = 5-HT7 receptor (Homo sapiens, UniProt P34969); experiment: Binding to 5-HT7 receptor (selectivity); parameters: dose or concentration left out as unconfirmed; settings: selectivity versus 5-HT6; read-out: percent inhibition for the 5-HT7 receptor
5-HT7 receptor, sequence (P34969 whole entry): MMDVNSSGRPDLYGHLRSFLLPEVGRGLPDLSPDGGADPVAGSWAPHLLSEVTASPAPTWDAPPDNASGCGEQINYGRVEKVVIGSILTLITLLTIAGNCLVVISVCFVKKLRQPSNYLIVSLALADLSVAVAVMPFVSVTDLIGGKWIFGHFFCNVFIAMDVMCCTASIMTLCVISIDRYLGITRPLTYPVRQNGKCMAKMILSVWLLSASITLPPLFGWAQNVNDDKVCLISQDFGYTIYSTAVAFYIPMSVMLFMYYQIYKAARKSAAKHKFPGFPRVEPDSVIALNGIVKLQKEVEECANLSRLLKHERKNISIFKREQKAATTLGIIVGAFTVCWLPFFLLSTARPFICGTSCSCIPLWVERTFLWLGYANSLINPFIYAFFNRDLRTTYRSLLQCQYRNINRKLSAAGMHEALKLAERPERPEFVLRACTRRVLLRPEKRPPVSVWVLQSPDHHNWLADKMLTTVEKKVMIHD

5-HT2A receptor, sequence (P28223 whole entry): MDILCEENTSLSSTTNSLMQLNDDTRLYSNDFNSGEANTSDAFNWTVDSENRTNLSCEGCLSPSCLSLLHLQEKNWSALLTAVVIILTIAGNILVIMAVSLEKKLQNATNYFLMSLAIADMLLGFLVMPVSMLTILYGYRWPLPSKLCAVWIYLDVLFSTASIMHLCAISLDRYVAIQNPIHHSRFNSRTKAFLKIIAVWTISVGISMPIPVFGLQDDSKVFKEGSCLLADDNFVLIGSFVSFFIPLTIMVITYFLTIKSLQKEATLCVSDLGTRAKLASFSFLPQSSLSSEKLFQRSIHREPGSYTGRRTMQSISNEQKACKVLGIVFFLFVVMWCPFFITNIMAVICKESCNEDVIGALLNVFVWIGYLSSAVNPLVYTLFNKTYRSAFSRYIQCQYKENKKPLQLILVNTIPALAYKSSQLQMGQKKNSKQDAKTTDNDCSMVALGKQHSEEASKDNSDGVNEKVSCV
T1 sequence (P50406 whole entry): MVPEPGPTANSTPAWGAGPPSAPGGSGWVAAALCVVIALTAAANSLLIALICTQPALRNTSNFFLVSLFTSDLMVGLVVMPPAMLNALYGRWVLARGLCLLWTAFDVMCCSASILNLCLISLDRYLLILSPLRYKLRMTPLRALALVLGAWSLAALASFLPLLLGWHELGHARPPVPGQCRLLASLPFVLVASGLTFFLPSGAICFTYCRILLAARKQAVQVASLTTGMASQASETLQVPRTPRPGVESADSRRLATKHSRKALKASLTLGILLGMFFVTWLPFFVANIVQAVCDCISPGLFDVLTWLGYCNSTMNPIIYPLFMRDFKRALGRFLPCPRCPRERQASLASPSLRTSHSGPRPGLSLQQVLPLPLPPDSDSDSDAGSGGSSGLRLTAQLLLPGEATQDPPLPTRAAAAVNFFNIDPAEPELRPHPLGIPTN

Compound | inhibition at 0.1 µM (human 5HT6 receptor [1]) [%] | reversal of serotonin stimulation of adenyl cyclase (5-HT6 receptor antagonism) (human 5HT6 receptor [2]) | inhibition (5-HT2A receptor) [%] | inhibition at 0.1 µM (5HT2C receptor) [%] | inhibition (5-HT7 receptor) [%]
O=S(=O)(c1ccc2ccccc2c1)n1cc(C2CCN3CCCC3C2)c2cc(F)ccc21 (single isomer, unassigned; isomer i) [Example 10a, 5-Fluoro-3-[(7R or 7S)(8a-R,S)-octahydrohydro-7-indolizinyl]-1-(2-naphthalenesulfonyl)indole,Isomer I] | > 80 | able to reverse the serotonin stimulation of adenyl cyclase |  |  | 
O=S(=O)(c1cccc2ccccc12)n1cc(C2CCN3CCCC3C2)c2cc(F)ccc21 (single isomer, unassigned; isomer i) [Example 10e, 5-Fluoro-3-[(7R or 7S)(8a-R,S)-octahydrohydro-7-indolizinyl]-1-(1-napthalenesulfonyl)indole, Isomer I] | > 80 | able to reverse the serotonin stimulation of adenyl cyclase |  |  | 
O=S(=O)(c1cccc2ccccc12)n1cc(C2CCN3CCCC3C2)c2cc(F)ccc21 (single isomer, unassigned; isomer ii) [Example 10f, 5-Fluoro-3-[(7R or 7S)(8a-R,S)-octahydrohydro-7-indolizinyl]-1-(1-naphthalenesulfonyl)indole,Isomer II] |  | able to reverse the serotonin stimulation of adenyl cyclase | < 20 | < 20 | < 20
O=S(=O)(c1ccccc1)n1cc(C2CCN3CCCC3C2)c2cc(F)ccc21 (single isomer, unassigned; isomer i) [Example 10c, 5-Fluoro-3-[(7R or 7S)(8a-R,S)-octahydrohydro-7-indolizinyl]-1-phenylsulfonylindole, Isomer I] | > 80 | able to reverse the serotonin stimulation of adenyl cyclase |  |  | 
O=S(=O)(c1cccc2ccccc12)n1cc(C2=CCN3CCCC3C2)c2cc(F)ccc21 (racemic) [Example 6y, 5-Fluoro-3-[(8a-R,S)-1,2,3,5,8,8a-hexahydro-7-indolizinyl]-1-(1-naphthalenesulfonyl)indole] | > 80 | able to reverse the serotonin stimulation of adenyl cyclase | < 20 | < 20 | < 20
O=S(=O)(c1cccc2ccccc12)n1cc(N2CCN3CCCC3C2)c2ccccc21 (racemic) [Example 6b, 3-[(6-R,S)-1,4-Diaza[4.3. 0]bicyclonon-4-yl]-1-(1-naphthalenesulfonyl)indole] | > 80 | able to reverse the serotonin stimulation of adenyl cyclase | < 20 | < 20 | < 20
O=S(=O)(c1ccccc1)n1cc(C2=CCN3CCCC3C2)c2cc(F)ccc21 (racemic) [Example 6x, 5-Fluoro-3-[(8a-R,S)-1,2,3,5,8,8a-hexahydro-7-indolizinyl]-1-phenylsulfonylindole] | > 80 | able to reverse the serotonin stimulation of adenyl cyclase | < 20 | < 20 | < 20
O=S(=O)(c1ccccc1)n1cc(N2CCN3CCCC3C2)c2ccccc21 (racemic) [Example 6j, 3-[(6-R,S)-1,4-Diaza[4.3.0]bicyclonon-4-yl]-1-(phenylsulfonyl)indole] | > 80 | able to reverse the serotonin stimulation of adenyl cyclase | < 20 | < 20 | < 20
O=S(=O)(c1ccc2ccccc2c1)n1cc(C2CCN3CCCC3C2)c2cc(F)ccc21 (single isomer, unassigned; isomer ii) [Example 10b, 5-Fluoro-3-[(7R or 7S)(8a-R,S)-octahydrohydro-7-indolizinyl]-1-(2-naphthalenesulfonyl)indole, Isomer II] |  | able to reverse the serotonin stimulation of adenyl cyclase | < 20 | < 20 | < 20
